# Laboratory results from US20250152592A1, “PHARMACEUTICAL COMPOSITION COMPRISING ALLOPURINOL, FEBUXOSTAT OR PHARMACEUTICALLY ACCEPTABLE SALT THEREOF FOR PREVENTION OR TREATMENT OF CHRONIC KIDNEY DISEASE IN SUBJECT HAVING HIGH SERUM URIC ACID CONCENTRATION” (Indream Healthcare Inc., priority 2022, published 2025).
# Columns and labels:
# [1] = tested on: patients with gout and a history of major cardiovascular diseases; experiment: clinical trial febuxostat vs allopurinol: serum uric acid, gout flare, treatment discontinuation; type: in vivo, human
# Description: (§1) In order to evaluate non-inferiority of febuxostat to allopurinol related to cardiovascular risk, a clinical trial was designed and proceeded.
# (§2) A multicenter, randomized, double-blind non-inferiority trial was performed. The details of the clinical trial design have been published previously. An independent data and safety monitoring committee with access to unblinded data monitored the clinical trial. The statistical analysis for the data and the safety monitoring committee was performed by an independent statistical group (WebbWrites).
# (§3) The patients were regarded as having a history of major cardiovascular diseases, if they had myocardial infarction, hospitalization for unstable angina, stroke, hospitalization for transient ischemic attack, peripheral vascular disease, or diabetes mellitus symptoms. All participants provided a prior informed consent form.
# (§4) The patients were randomly assigned so that they received febuxostat or allopurinol administered once a day in a double-blind manner. The randomization was stratified according to the estimated creatinine clearance at baseline (patient group having an estimated creatinine clearance ≥60 ml per minute vs patient group having an estimated creatinine clearance ≥30 and <60 ml per minute).
# (§5) The dose of allopurinol was modified according to a kidney function. The patients with the estimated creatinine clearance 60 ml or more per minute i) initially received allopurinol at a dose of 300 mg once a day, and the dose was increased in 100 mg increments monthly until the patient had the serum uric acid concentration of less than 6.0 mg per deciliter or the dosage of allopurinol was 600 mg once a day. The patient having the estimated creatinine clearance of 30 ml or more and less than 60 ml per minute initially received 200 mg of allopurinol, and then the dose was increased in 100 mg increments until the patient either had the serum uric acid concentration of less than 6.0 mg per deciliter or was receiving the allopurinol dose of 400 mg once daily.
# (§6) The dose of febuxostat was not modified according to the kidney function. The patients who were randomly assigned to receive febuxostat initially received 40 mg once a daily, and continued to receive the same dosage if the serum uric acid concentration was less than 6.0 mg per deciliter after 2 weeks of the treatment. If the serum uric acid concentration was higher than 6.0 mg per deciliter at 2nd week visit, the dose of febuxostat was increased to 80 mg once daily for the remainder of the trial.
# (§7) During the period, the administration of a double-blind and double-dummy trial medications was guided by an interactive voice-response system which was a procedure to prevent unblinding for the patients whose dose was not adjusted. After completing dose adjustment, the urate level was concealed from the investigators, and the treatment was managed throughout the trial using the interactive voice-response system.
# (§8) Outpatient visits were conducted according to the following schedule: during screening and randomization, and at 2, 4, 6, 8, 10, 12, and 24 weeks after the randomization, and every 6 months during the subsequent years of the trial. The patients with reduced kidney function or, the patients aged 65 years or older at randomization were visited at 9 and 15 months for monitoring the serum chemical profile. If the patient agreed to be monitored, but would not return for study visit, telephone contact was made, but such method was not preferred or recommended.
# [2] = tested on: patients with gout and a history of major cardiovascular diseases; experiment: eGFR over time by average serum uric acid concentration, analysis of clinical trial data; type: in vivo, human; settings: for eGFR Mean (95% CI): febuxostat group
# Description: as §1, §2, §3, §4, §5, §6, §7, §8
# In order to confirm the effect of allopurinol and febuxostat on the kidney disease, the data obtained in the clinical trial described above was analyzed.
smiles,measurement,setting,value
Cc1nc(-c2ccc(OCC(C)C)c(C#N)c2)sc1C(=O)O [febuxostat],proportion of patients with maintenance of serum uric acid concentration at less than 6.0 mg per deciliter,"[1]; after 2nd week, at most times, febuxostat group vs allopurinol group",a higher proportion of the patients in the febuxostat group
same,proportion of patients with serum uric acid concentration of less than 6.0 mg per deciliter,"[1]; at the 2nd week, febuxostat group vs allopurinol group",higher in the febuxostat group than in the allopurinol group
same,proportion of patients with serum uric acid concentration of less than 5.0 mg per deciliter,"[1]; entire trial, febuxostat group vs allopurinol group",a larger proportion of the patients in the febuxostat group than in the allopurinol group
same,rate of gout flare,"[1]; overall, during the trial",0.68 per patient-year
same,prevention or treatment of chronic kidney disease when serum uric acid maintained below 6,"[2]; blood glucose ≥126 mg/dl, DBP ≤80 mmHg, SBP ≤130 mmHg, serum uric acid ≥8 mg/dl, or gout history 10 years or more",effectively prevented or treated
same,eGFR Mean (95% CI),"[2]; Baseline UA≥ 8, Average UA <6, Baseline",61.87 (60.73-63.01) ml/min/1.73 m^2
same,eGFR Mean (95% CI),"[2]; Baseline UA≥ 8, Average UA <6, Month 3",62.09 (60.91-63.28) ml/min/1.73 m^2
same,eGFR Mean (95% CI),"[2]; Baseline UA≥ 8, Average UA <6, Month 18",62.99 (61.62-64.36) ml/min/1.73 m^2
same,eGFR Mean (95% CI),"[2]; Baseline UA≥ 8, Average UA <6, Month 24",63.15 (61.69-64.61) ml/min/1.73 m^2
same,eGFR Mean (95% CI),"[2]; Baseline UA≥ 8, Average UA <6, Month 30",63.85 (62.28-65.43) ml/min/1.73 m^2
same,eGFR Mean (95% CI),"[2]; Baseline UA≥ 8, Average UA <6, Month 36",64.04 (62.38-65.70) ml/min/1.73 m^2
same,eGFR Mean (95% CI),"[2]; Baseline UA≥ 8, Average UA <6, Month 42",63.75 (61.92-65.59) ml/min/1.73 m^2
same,eGFR Mean (95% CI),"[2]; Baseline UA≥ 8, Average UA <6, Month 48",65.32 (63.28-67.37) ml/min/1.73 m^2
same,eGFR Mean (95% CI),"[2]; Baseline UA≥ 8, Average UA <6, Month 54",66.35 (64.11-68.58) ml/min/1.73 m^2
same,eGFR Mean (95% CI),"[2]; Baseline UA≥ 8, Average UA <6, Month 60",66.48 (63.94-69.02) ml/min/1.73 m^2
same,eGFR Mean (95% CI),"[2]; Baseline UA≥ 8, Average UA <6, Week 2",62.03 (60.84-63.22) ml/min/1.73 m^2
same,eGFR Mean (95% CI),"[2]; Baseline UA≥ 8, Average UA ≥6, Baseline",63.17 (61.34-65.00) ml/min/1.73 m^2
same,eGFR Mean (95% CI),"[2]; Baseline UA≥ 8, Average UA ≥6, Month 3",63.02 (61.13-64.91) ml/min/1.73 m^2
same,eGFR Mean (95% CI),"[2]; Baseline UA≥ 8, Average UA ≥6, Month 18",61.52 (59.25-63.79) ml/min/1.73 m^2
same,eGFR Mean (95% CI),"[2]; Baseline UA≥ 8, Average UA ≥6, Month 24",62.08 (59.58-64.57) ml/min/1.73 m^2
same,eGFR Mean (95% CI),"[2]; Baseline UA≥ 8, Average UA ≥6, Month 30",60.68 (57.82-63.54) ml/min/1.73 m^2
same,eGFR Mean (95% CI),"[2]; Baseline UA≥ 8, Average UA ≥6, Month 36",61.32 (58.15-64.49) ml/min/1.73 m^2
same,eGFR Mean (95% CI),"[2]; Baseline UA≥ 8, Average UA ≥6, Month 42",60.90 (57.46-64.34) ml/min/1.73 m^2
same,eGFR Mean (95% CI),"[2]; Baseline UA≥ 8, Average UA ≥6, Month 48",61.54 (57.81-65.27) ml/min/1.73 m^2
same,eGFR Mean (95% CI),"[2]; Baseline UA≥ 8, Average UA ≥6, Month 54",62.30 (58.01-66.59) ml/min/1.73 m^2
same,eGFR Mean (95% CI),"[2]; Baseline UA≥ 8, Average UA ≥6, Month 60",61.06 (55.87-66.24) ml/min/1.73 m^2
same,eGFR Mean (95% CI),"[2]; Baseline UA≥ 8, Average UA ≥6, Week 2",63.18 (61.22-65.15) ml/min/1.73 m^2
same,eGFR Mean (95% CI),"[2]; Baseline blood glucose level ≥126, Average UA <6, Baseline",64.23 (62.54-65.93) ml/min/1.73 m^2
same,eGFR Mean (95% CI),"[2]; Baseline blood glucose level ≥126, Average UA <6, Month 3",63.54 (61.75-65.32) ml/min/1.73 m^2
same,eGFR Mean (95% CI),"[2]; Baseline blood glucose level ≥126, Average UA <6, Month 6",63.33 (61.52-65.14) ml/min/1.73 m^2
same,eGFR Mean (95% CI),"[2]; Baseline blood glucose level ≥126, Average UA <6, Month 12",64.32 (62.49-66.15) ml/min/1.73 m^2
same,eGFR Mean (95% CI),"[2]; Baseline blood glucose level ≥126, Average UA <6, Month 18",63.84 (61.79-65.89) ml/min/1.73 m^2
same,eGFR Mean (95% CI),"[2]; Baseline blood glucose level ≥126, Average UA <6, Month 24",64.49 (62.28-66.69) ml/min/1.73 m^2
same,eGFR Mean (95% CI),"[2]; Baseline blood glucose level ≥126, Average UA <6, Month 30",63.64 (61.38-65.91) ml/min/1.73 m^2
same,eGFR Mean (95% CI),"[2]; Baseline blood glucose level ≥126, Average UA <6, Month 36",64.30 (61.77-66.83) ml/min/1.73 m^2
same,eGFR Mean (95% CI),"[2]; Baseline blood glucose level ≥126, Average UA <6, Month 42",63.94 (61.12-66.76) ml/min/1.73 m^2
same,eGFR Mean (95% CI),"[2]; Baseline blood glucose level ≥126, Average UA <6, Month 48",65.35 (62.27-68.43) ml/min/1.73 m^2
same,eGFR Mean (95% CI),"[2]; Baseline blood glucose level ≥126, Average UA <6, Month 54",66.66 (63.21-70.10) ml/min/1.73 m^2
same,eGFR Mean (95% CI),"[2]; Baseline blood glucose level ≥126, Average UA <6, Month 60",67.78 (63.68-71.89) ml/min/1.73 m^2
same,eGFR Mean (95% CI),"[2]; Baseline blood glucose level ≥126, Average UA <6, Week 2",64.06 (62.29-65.83) ml/min/1.73 m^2
same,eGFR Mean (95% CI),"[2]; Baseline blood glucose level ≥126, Average UA ≥6, Baseline",65.94 (62.79-69.10) ml/min/1.73 m^2
same,eGFR Mean (95% CI),"[2]; Baseline blood glucose level ≥126, Average UA ≥6, Month 3",64.51 (61.21-67.81) ml/min/1.73 m^2
same,eGFR Mean (95% CI),"[2]; Baseline blood glucose level ≥126, Average UA ≥6, Month 6",64.04 (60.85-67.23) ml/min/1.73 m^2
same,eGFR Mean (95% CI),"[2]; Baseline blood glucose level ≥126, Average UA ≥6, Month 12",62.81 (59.35-66.28) ml/min/1.73 m^2
same,eGFR Mean (95% CI),"[2]; Baseline blood glucose level ≥126, Average UA ≥6, Month 18",62.28 (58.22-66.35) ml/min/1.73 m^2
same,eGFR Mean (95% CI),"[2]; Baseline blood glucose level ≥126, Average UA ≥6, Month 24",62.44 (58.21-66.68) ml/min/1.73 m^2
same,eGFR Mean (95% CI),"[2]; Baseline blood glucose level ≥126, Average UA ≥6, Month 30",61.66 (57.17-66.16) ml/min/1.73 m^2
same,eGFR Mean (95% CI),"[2]; Baseline blood glucose level ≥126, Average UA ≥6, Month 36",62.64 (57.30-67.99) ml/min/1.73 m^2
same,eGFR Mean (95% CI),"[2]; Baseline blood glucose level ≥126, Average UA ≥6, Month 42",62.33 (56.68-67.99) ml/min/1.73 m^2
same,eGFR Mean (95% CI),"[2]; Baseline blood glucose level ≥126, Average UA ≥6, Month 48",60.51 (54.59-66.44) ml/min/1.73 m^2
same,eGFR Mean (95% CI),"[2]; Baseline blood glucose level ≥126, Average UA ≥6, Month 54",60.70 (53.73-67.67) ml/min/1.73 m^2
same,eGFR Mean (95% CI),"[2]; Baseline blood glucose level ≥126, Average UA ≥6, Month 60",60.00 (50.87-69.14) ml/min/1.73 m^2
